# According to patent publication US20220220106A1, “QUINOLINE COMPOUNDS AND PHARMACEUTICAL COMPOSITIONS AND USES THEREOF” (Academy of Military Medical Sciences, priority 2019, published 2022):
# Legend:
# RD cells = assay: Detection of cytotoxicity in RD cells (CellTiter-Glo); format: cell-based; conditions: 4 days, CellTiter-Glo, median toxic dose
# Summary of the method: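 RD cells (1*10^5/mL) cultured 4 days at 37 °C with 10 compound concentrations from 3-fold dilution of a 400 μM pretreatment solution, final being 0.5 times that. Viability by CellTiter-Glo luminescence versus cell control; TD50 from S-curve fit; SI=TD50/IC50.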
# mTOR kinase = molecular target: T1, mTOR kinase (Homo sapiens, UniProt P42345); assay: In vitro inhibitory activity on mTOR kinase (TR-FRET, GFP-4E-BP1 substrate); format: biochemical; conditions: for IC50: 0.5 μg/mL mTOR, 0.4 μM GFP-4E-BP1, 3 μM ATP
# T1 construct: purchased Thermo Fisher PV4753
# T1 sequence (P42345 1360-2549 limits assumed): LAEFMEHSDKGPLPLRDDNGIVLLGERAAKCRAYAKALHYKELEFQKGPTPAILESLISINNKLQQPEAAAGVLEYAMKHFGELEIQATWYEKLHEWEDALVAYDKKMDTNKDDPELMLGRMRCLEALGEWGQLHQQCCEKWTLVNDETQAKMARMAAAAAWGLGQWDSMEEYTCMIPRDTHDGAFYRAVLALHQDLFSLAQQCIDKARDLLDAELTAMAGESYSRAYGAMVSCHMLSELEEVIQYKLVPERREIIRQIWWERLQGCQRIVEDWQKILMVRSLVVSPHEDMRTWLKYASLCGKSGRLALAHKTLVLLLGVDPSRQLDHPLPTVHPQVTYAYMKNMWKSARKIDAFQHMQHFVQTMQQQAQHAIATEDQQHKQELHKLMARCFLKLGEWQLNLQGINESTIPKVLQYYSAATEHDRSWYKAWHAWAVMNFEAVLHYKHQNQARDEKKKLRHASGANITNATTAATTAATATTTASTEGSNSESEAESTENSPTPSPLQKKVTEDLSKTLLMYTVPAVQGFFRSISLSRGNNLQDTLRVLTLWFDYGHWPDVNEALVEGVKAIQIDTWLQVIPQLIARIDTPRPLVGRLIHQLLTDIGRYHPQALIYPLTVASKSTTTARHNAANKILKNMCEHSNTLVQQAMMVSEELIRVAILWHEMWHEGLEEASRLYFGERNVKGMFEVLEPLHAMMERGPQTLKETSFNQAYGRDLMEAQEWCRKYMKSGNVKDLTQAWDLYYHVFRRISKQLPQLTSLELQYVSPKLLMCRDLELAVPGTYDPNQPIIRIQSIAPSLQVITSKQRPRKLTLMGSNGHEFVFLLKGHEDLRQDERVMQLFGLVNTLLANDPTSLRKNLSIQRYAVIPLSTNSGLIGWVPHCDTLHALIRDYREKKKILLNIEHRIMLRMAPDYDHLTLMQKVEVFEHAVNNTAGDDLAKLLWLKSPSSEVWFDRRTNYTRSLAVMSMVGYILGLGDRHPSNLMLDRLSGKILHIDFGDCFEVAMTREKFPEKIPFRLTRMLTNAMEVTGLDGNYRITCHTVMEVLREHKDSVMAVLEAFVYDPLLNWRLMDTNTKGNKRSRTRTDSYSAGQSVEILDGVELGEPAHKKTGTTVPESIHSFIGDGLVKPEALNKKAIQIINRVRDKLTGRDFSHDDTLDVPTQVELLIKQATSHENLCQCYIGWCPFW
# Protocol: Preparation of Reaction Buffers:
# Basic buffer composition: 50 mM (mmol/L) HEPES (pH 7.5), 1 mM EGTA, 0.01% Tween-20, 10 mM MnCl2, 2 mM DTT (diluted from 500 mM before used).
# (2) mTOR kinase buffer solution: 1650 μL of 2.5×mTOR kinase buffer solution was composed of 1640.2 μL of 1× basic buffer and 9.8 μL of mTOR (0.21 mg/mL stock solution), and the final concentration was 0.5 μg/mL.
# (3) Detection buffer solution: 3960 μL of 2× detection buffer solution was composed of 3797.1 μL of TR-FRET buffer diluent (purchased from Thermo Fisher, catalog number: PV3574), 4.5 μL of Tb-anti-p4E-BP1 antibody (3.49 μM stock solution, purchased from Thermo Fisher, catalog number: PV4757) and 158 μL of EDTA (500 mM stock solution), and the final concentrations were 2 nM Tb-anti-p4E-BP1 antibody and 10 mM EDTA.
# (1) 20 μL of 100% DMSO solution containing 5 mM compound to be tested was added to a 96-well plate.
# (2) The compound was serially diluted 3 times in DMSO.
# (3) 1 μL of the compound in the previous step was taken, diluted with 19 μL of mTOR kinase buffer, and transferred to another 96-well plate.
# (4) 4 μL of mTOR kinase solution (purchased from Thermo Fisher, catalog number: PV4753) was added to a 384-well plate.
# (5) 2 μL of the compound in G was taken out and added to the 384-well plate with mTOR kinase, and incubated at room temperature for 15 minutes.
# (6) 4 μL of substrate solution was added to initiate the reaction.
# The final concentrations of mTOR reaction solution were: 0.5 μg/mL mTOR, 0.4 μM GFP-4E-BP1, 3 μM ATP.
# The final concentration of the DMSO solution was 1%.
# (7) Incubation was performed for 60 minutes at room temperature.
# (8) 10 μL of detection buffer was added. The final concentrations were 2 nM Tb-anti-p4E-BP1 antibody and 10 mM EDTA.
# (9) Incubation was performed for 30 minutes at room temperature.
# (10) TR-FRET value was read on MD5 multi-mode plate reader (Molecular Devices). The excitation wavelength was 340 nm, the emission wavelength 1 was 495 nm, and the emission wavelength 2 was 520 nm. The ratio of 520 nm/495 nm readings was calculated as TR-FRET value.
# IC50 of compound was fitted by nonlinear regression equation:
# Y=Bottom+(Top-Bottom)/(1+10^((LogIC50-X)*HillSlope));
# X: common logarithm value of compound concentration; Y: TR-FRET value (520 nm/495 nm).
SMILES,TD50 (RD cells),IC50 (mTOR kinase),"inhibitory activity on mTOR kinase, in words (mTOR kinase)"
"CCCC(=O)Nc1ccc(-c2ccc3ncc4ccc(=O)n(-c5cccc(C(F)(F)F)c5)c4c3c2)cn1 [HTL-7-05, 9-[3-(6-butyrylamino)pyridyl]-2-oxo-1-[3-(trifluoromethyl)phenyl]-1,2-dihydrobenzo[h][1,6]naphthyridine]",0.75 ± 0.36 µM,39 nM,
"O=C(Cc1ccccc1)Nc1ccc(-c2ccc3ncc4ccc(=O)n(-c5cccc(C(F)(F)F)c5)c4c3c2)cn1 [HTL-7-10, 9-[3-(6-phenylacetylamino)pyridyl]-2-oxo-1-[3-(trifluoromethyl)phenyl]-1,2-dihydrobenzo[h][1,6]naphthyridine]",0.74 ± 0.72 µM,34.8 nM,
"CCC(=O)Nc1ccc(-c2ccc3ncc4ccc(=O)n(-c5cccc(C(F)(F)F)c5)c4c3c2)cn1 [HTL-6-45, 9-[3-(6-propionylamino)pyridyl]-2-oxo-1-[3-(trifluoromethyl)phenyl]-1,2-dihydrobenzo[h][1,6]naphthyridine]",0.04 ± 0.02 µM,29.2 nM,
"NC(=O)/C=C/c1ccc2ncc3oc(=O)n(-c4cccc(C(F)(F)F)c4)c3c2c1 [HTL-6-30, (E)-8-(2-carbamoyl-vinyl)-1-[3-(trifluoromethyl)phenyl]oxazolo[5,4-c]quinolin-2(1H)-one]",7 ± 0.09 µM,47.6 nM,better inhibitory activity
"COc1cc(-c2ccc3ncc4ccc(=O)n(-c5cccc(C(F)(F)F)c5)c4c3c2)cnc1N [HTL-7-19, 9-[3-(6-amino-5-methoxy)pyridyl]-2-oxo-1-[3-(trifluoromethyl)phenyl]-1,2-dihydrobenzo[h][1,6]naphthyridine]",0.06 ± 0.02 µM,7.58 nM,excellent inhibitory activity
"CCCCC(=O)Nc1ccc(-c2ccc3ncc4ccc(=O)n(-c5cccc(C(F)(F)F)c5)c4c3c2)cn1 [HTL-7-08, 9-[3-(6-valerylamino)pyridyl]-2-oxo-1-[3-(trifluoromethyl)phenyl]-1,2-dihydrobenzo[h][1,6]naphthyridine]",0.70 ± 0.48 µM,76.6 nM,
"O=c1ccc2cnc3ccc(C4=CCC5(CC4)OCCO5)cc3c2n1-c1cccc(C(F)(F)F)c1 [HTL-7-13, 9-(1,4-dioxa-spiro[4.5]dec-7-en-8-yl)-2-oxo-1-[3-(trifluoromethyl)phenyl]-1,2-dihydrobenzo[h][1,6]naphthyridine]",200 ± 0 µM,86.1 nM,
"O=c1ccc2cnc3ccc(-c4ccc5ncccc5c4)cc3c2n1-c1cccc(C(F)(F)F)c1 [HTL-6-47, 9-(6-quinolyl)-2-oxo-1-[3-(trifluoromethyl)phenyl]-1,2-dihydrobenzo[h][1,6]naphthyridine]",0.03 ± 0.02 µM,6.17 nM,excellent inhibitory activity
"O=c1ccc2cnc3ccc(-c4ccc(F)nc4)cc3c2n1-c1cccc(C(F)(F)F)c1 [HTL-7-01, 9-[3-(6-fluoro)pyridyl]-2-oxo-1-[3-(trifluoromethyl)phenyl]-1,2-dihydrobenzo[h][1,6]naphthyridine]",0.23 ± 0.33 µM,28.8 nM,
"O=c1ccc2cnc3ccc(-c4ccc(N5CCCC5)nc4)cc3c2n1-c1cccc(C(F)(F)F)c1 [HTL-7-20, 9-[3-(6-pyrrolidinyl)pyridyl]-2-oxo-1-[3-(trifluoromethyl)phenyl]-1,2-dihydrobenzo[h][1,6]naphthyridine]",1.79 ± 0.67 µM,11.3 nM,
"Cc1ncccc1-c1ccc2ncc3ccc(=O)n(-c4cccc(C(F)(F)F)c4)c3c2c1 [HTL-6-49, 9-[3-(2-methyl)pyridyl]-2-oxo-1-[3-(trifluoromethyl)phenyl]-1,2-dihydrobenzo[h][1,6]naphthyridine]",0.07 ± 0.00 µM,11.9 nM,
"CN1CCN(c2ccc(-c3ccc4ncc5ccc(=O)n(-c6cccc(C(F)(F)F)c6)c5c4c3)cn2)CC1 [HTL-7-17, 9-{3-[6-(4-methylpiperazin-1-yl)pyridyl]}-2-oxo-1-[3-(trifluoromethyl)phenyl]-1,2-dihydrobenzo[h][1,6]naphthyridine]",0.18 ± 0.15 µM,1.15 nM,excellent inhibitory activity
"COc1ccc(-c2ccc3ncc4ccc(=O)n(-c5cccc(C(F)(F)F)c5)c4c3c2)cn1 [HTL-7-03, 9-[3-(6-methoxy)pyridyl]-2-oxo-1-[3-(trifluoromethyl)phenyl]-1,2-dihydrobenzo[h][1,6]naphthyridine]",0.13 ± 0.03 µM,7.25 nM,excellent inhibitory activity
"Nc1cccc(Nc2ccc3ncc4ccc(=O)n(-c5cccc(C(F)(F)F)c5)c4c3c2)c1 [HTL-6-11, 9-(3-aminophenyl)imino-2-oxo-1-[3-(trifluoromethyl)phenyl]-1,2-dihydrobenzo[h][1,6]naphthyridine]",7.58 ± 1.24 µM,255 nM,moderate inhibitory activity
"CC(C)(C)OC(=O)Nc1ccc(-c2ccc3ncc4ccc(=O)n(-c5cccc(C(F)(F)F)c5)c4c3c2)cn1 [HTL-7-21, 9-[3-(6-tert-butoxycarbonylamino)pyridyl]-2-oxo-1-[3-(trifluoromethyl)phenyl]-1,2-dihydrobenzo[h][1,6]naphthyridine]",0.69 ± 0.50 µM,11.9 nM,
"O=c1ccc2cnc3ccc(-c4ccc(N5CCOCC5)nc4)cc3c2n1-c1cccc(C(F)(F)F)c1 [HTL-7-18, 9-[3-(6-morpholin-4-yl)pyridyl]-2-oxo-1-[3-(trifluoromethyl)phenyl]-1,2-dihydrobenzo[h][1,6]naphthyridine]",2.91 ± 1.16 µM,22.7 nM,
"COc1ncc(-c2ccc3ncc4ccc(=O)n(-c5cccc(C(F)(F)F)c5)c4c3c2)cn1 [HTL-7-06, 9-[5-(2-methoxy)pyrimidyl]-2-oxo-1-[3-(trifluoromethyl)phenyl]-1,2-dihydrobenzo[h][1,6]naphthyridine]",0.17 ± 0.06 µM,4.82 nM,excellent inhibitory activity
"NC(=O)c1ccc(-c2ccc3ncc4oc(=O)n(-c5cccc(C(F)(F)F)c5)c4c3c2)cc1 [HTL-5-21, 8-(4-carbamoyl)phenyl-1-[3-(trifluoromethyl)phenyl]oxazolo[5,4-c]quinolin-2(1H)-one]",6.95 ± 1.23 µM,15.1 nM,better inhibitory activity
"O=C(Nc1ccc(-c2ccc3ncc4ccc(=O)n(-c5cccc(C(F)(F)F)c5)c4c3c2)cn1)OCc1ccccc1 [HTL-7-14, 9-[3-(6-benzyloxyamido)pyridyl]-2-oxo-1-[3-(trifluoromethyl)phenyl]-1,2-dihydrobenzo[h][1,6]naphthyridine]",1.00 ± 0.81 µM,306 nM,moderate inhibitory activity
"O=C1Cc2cc(-c3ccc4ncc5ccc(=O)n(-c6cccc(C(F)(F)F)c6)c5c4c3)ccc2N1 [HTL-7-04, 9-[5-(2-oxo)indolyl]-2-oxo-1-[3-(trifluoromethyl)phenyl]-1,2-dihydrobenzo[h][1,6]naphthyridine]",10.27 ± 7.81 µM,240 nM,moderate inhibitory activity
"O=C(Nc1ccc(-c2ccc3ncc4ccc(=O)n(-c5cccc(C(F)(F)F)c5)c4c3c2)cn1)Oc1ccccc1 [HTL-7-15, 9-[3-(6-phenoxyamido)pyridyl]-2-oxo-1-[3-(trifluoromethyl)phenyl]-1,2-dihydrobenzo[h][1,6]naphthyridine]",0.20 ± 0.09 µM,25 nM,
"COc1ccc(CC(=O)Nc2ccc(-c3ccc4ncc5ccc(=O)n(-c6cccc(C(F)(F)F)c6)c5c4c3)cn2)cc1 [HTL-7-11, 9-{3-[6-(4-methoxy)phenylacetylamino]pyridyl}-2-oxo-1-[3-(trifluoromethyl)phenyl]-1,2-dihydrobenzo[h][1,6]naphthyridine]",0.19 ± 0.10 µM,32.5 nM,
